Test results taken from US10681908B2, “Molecules having pesticidal utility, and intermediates, compositions, and processes, related thereto” (Dow AgroSciences LLC, priority 2016, dated 2020).

Legend:
Type in all cases: in vivo
[1] = system: Beet Armyworm (Spodoptera exigua, LAPHEG); assay: Bioassay on Beet Armyworm (BAW), 128-well diet tray assay; settings: 168 h, 50 μg/cm^2 on artificial diet, second instar larvae, five to seven days, 25° C., read-out: BAW % Control (or Mortality) rating
Outline: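 Artificial diet was surface-treated with 50 μg/cm^2 of compound in 90:10 acetone-water and dried; one to five second-instar larvae were placed per well, eight wells per treatment. Held at 25 °C, 14:10 light-dark, for five to seven days, then percent mortality per well was averaged.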

[2] = system: Cabbage Looper (Trichoplusia ni, TRIPNI); assay: Bioassay on Cabbage Looper (CL), 128-well diet tray assay; settings: 168 h, 50 μg/cm^2 on artificial diet, second instar larvae, five to seven days, 25° C., read-out: CL % Control (or Mortality) rating
Outline: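 Diet-tray assay: 1–5 second-instar larvae per well on artificial diet surface-treated with 50 μg/cm^2 compound (90:10 acetone-water, dried), eight wells per compound. Held at 25° C., 14:10 light-dark for five to seven days; percent mortality per well averaged across the eight wells.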

[3] = system: Green Peach Aphid (Myzus persicae, MYZUPE); assay: Bioassay on Green Peach Aphid (GPA), foliar spray on infested cabbage seedlings; settings: 72 h, 200 ppm foliar spray, three days, Abbott corrected % control, read-out: GPA % Control (or Mortality) rating
Procedure: Example B: Bioassays on Green Peach Aphid (Myzus Persicae, MYZUPE) (“GPA”)
Certain molecules disclosed in this document were tested against GPA using procedures described in the following example. In the reporting of the results, the “GPA & YFM Rating Table” was used (See Table Section).
Cabbage seedlings grown in 3-inch pots, with 2-3 small (3-5 cm) true leaves, were used as test substrate. The seedlings were infested with 20-50 GPA (wingless adult and nymph stages) one day prior to chemical application. Four pots with individual seedlings were used for each treatment. Test molecules (2 mg) were dissolved in 2 mL of acetone/methanol (1:1) solvent, forming stock solutions of 1000 ppm test molecule. The stock solutions were diluted 5× with 0.025% Tween 20 in water to obtain the solution at 200 ppm test molecule. A hand-held aspirator-type sprayer was used for spraying a solution to both sides of […] leaves until runoff. Reference plants (solvent check) were sprayed with the diluent only containing 20% by volume of acetone/methanol (1:1) solvent. Treated plants were held in a holding room for three days at approximately 25° C. and ambient relative humidity (RH) prior to grading. Evaluation was conducted by counting the number of live aphids per plant under a microscope. Percent Control was measured by using Abbott's correction formula (W. S. Abbott, “A Method of Computing the Effectiveness of an Insecticide” J. Econ. Entomol. 18 (1925), pp. 265-267) as follows. Corrected % Control=100*(X−Y)/X • where • X=No. of live aphids on solvent check plants and • Y=No. of live aphids on treated plants

[4] = system: Yellow Fever Mosquito (Aedes aegypti, AEDSAE); settings: about 1 day-old larvae, 3 days, room temperature, scored on mortality
Outline: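 Compounds from DMSO master plates (4000 ppm stock) diluted with 90:10 water:acetone, then about 1-day-old larvae in liver-powder water added. Held covered at room temperature for 3 days; each well scored for mortality.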

C[C@H](CS(=O)(=O)CC(F)(F)F)NC(=O)c1ccc(/C(F)=C/C(c2cc(Cl)c(C(F)F)c(Cl)c2)C(F)(F)F)cc1C(F)(F)F (some centres unmarked) [F104]
mortality at 50 µg/cm2 [1]: 50 to 100% | mortality at 50 µg/cm2 [2]: 50 to 100% | mortality at 200 ppm [3]: 0% | YFM % Control (or Mortality) rating [4]: A (80-100)

CCS(=O)(=O)C[C@@H](C)NC(=O)c1ccc(/C(F)=C/C(c2cc(Br)cc(Br)c2)C(F)(F)F)cc1C(F)(F)F (stereo partly drawn) [F42, 4-((Z)-3-(3,5-Dibromophenyl)-1,4,4,4-tetrafluorobut-1-en-1-yl)-N—((R)-1-(ethylsulfonyl)propan-2-yl)-2-(trifluoromethyl)benzamide]
mortality at 50 µg/cm2 [1]: 50 to 100% | mortality at 50 µg/cm2 [2]: 50 to 100% | mortality at 200 ppm [3]: 0 to 80% | YFM % Control (or Mortality) rating [4]: A (80-100)

C[C@H](C[S+](C)[O-])NC(=O)c1ccc(/C(F)=C/C(c2cc(Cl)c(Cl)c(Cl)c2)C(F)(F)F)cc1C(F)(F)F (stereo partly drawn) [F88, N-((2R)-1-(Methylsulfinyl)propan-2-yl)-4-((Z)-1,4,4,4-tetrafluoro-3-(3,4,5-trichlorophenyl)but-1-en-1-yl)-2-(trifluoromethyl)benzamide]
mortality at 50 µg/cm2 [1]: 50 to 100% | mortality at 50 µg/cm2 [2]: 50 to 100% | mortality at 200 ppm [3]: 80 to 100%

CCS(=O)(=O)C[C@@H](C)NC(=O)c1ccc(/C(F)=C/C(c2cc(Cl)c(F)c(Cl)c2)C(F)(F)F)cc1C(F)(F)F (stereo partly drawn) [F43, 4-((Z)-3-(3,5-Dichloro-4-fluorophenyl)-1,4,4,4-tetrafluorobut-1-en-1-yl)-N—((R)-1-(ethylsulfonyl)propan-2-yl)-2-(trifluoromethyl)benzamide]
mortality at 50 µg/cm2 [1]: 50 to 100% | mortality at 50 µg/cm2 [2]: 50 to 100% | mortality at 200 ppm [3]: 80 to 100% | YFM % Control (or Mortality) rating [4]: A (80-100)

C[C@H](C[S+]([O-])CCC#N)NC(=O)c1ccc(/C(F)=C/C(c2cc(Cl)c(Cl)c(Cl)c2)C(F)(F)F)cc1C(F)(F)F (stereo partly drawn) [F122, N-((2R)-1-((2-Cyanoethyl)sulfinyl)propan-2-yl)-4-((Z)-1,4,4,4-tetrafluoro-3-(3,4,5-trichlorophenyl)but-1-en-1-yl)-2-(trifluoromethyl)benzamide]
mortality at 50 µg/cm2 [1]: 50 to 100% | mortality at 50 µg/cm2 [2]: 50 to 100% | mortality at 200 ppm [3]: 0 to 80% | YFM % Control (or Mortality) rating [4]: A (80-100)

C[C@H](C[S+]([O-])CC(F)(F)F)NC(=O)c1ccc(/C(F)=C/C(c2cc(Cl)c(Cl)c(Cl)c2)C(F)(F)F)cc1C(F)(F)F (stereo partly drawn) [F3, 4-((Z)-1,4,4,4-tetrafluoro-3-(3,4,5-trichlorophenyl)but-1-en-1-yl)-N-((2R)-1-((2,2,2-trifluoroethyl)sulfinyl)propan-2-yl)-2-(trifluoromethyl)benzamide]
mortality at 50 µg/cm2 [1]: 50 to 100% | mortality at 50 µg/cm2 [2]: 50 to 100% | mortality at 200 ppm [3]: 0 to 80%

C[C@H](CSCC(F)(F)F)NC(=O)c1ccc(/C(F)=C/C(c2cc(Cl)c(Cl)c(Cl)c2)C(F)(F)F)cc1C(F)(F)F (stereo partly drawn) [F1, 4-((Z)-1,4,4,4-tetrafluoro-3-(3,4,5-trichlorophenyl)but-1-en-1-yl)-N—((R)-1-((2,2,2-trifluoroethyl)thio)propan-2-yl)-2-(trifluoromethyl)benzamide]
mortality at 50 µg/cm2 [1]: 50 to 100% | mortality at 50 µg/cm2 [2]: 50 to 100% | mortality at 200 ppm [3]: 0 to 80%

CCS(=O)(=O)C[C@@H](C)NC(=O)c1ccc(/C(F)=C/C(c2ccc(Cl)c(Cl)c2)C(F)(F)F)cc1C(F)(F)F (stereo partly drawn) [F46, 4-((Z)-3-(3,4-Dichlorophenyl)-1,4,4,4-tetrafluorobut-1-en-1-yl)-N—((R)-1-(ethylsulfonyl)propan-2-yl)-2-(trifluoromethyl)benzamide]
mortality at 50 µg/cm2 [1]: 50 to 100% | mortality at 50 µg/cm2 [2]: 50 to 100% | mortality at 200 ppm [3]: 0 to 80% | YFM % Control (or Mortality) rating [4]: B (More than 0-Less than 80)

C[C@H](CS(=O)(=O)CC(F)(F)F)NC(=O)c1ccc(/C(F)=C/C(c2cc(Cl)c(Cl)c(Cl)c2)C(F)(F)F)cc1C(F)(F)F (stereo partly drawn) [F2, 4-((Z)-1,4,4,4-tetrafluoro-3-(3,4,5-trichlorophenyl)but-1-en-1-yl)-N—((R)-1-((2,2,2-trifluoroethyl)sulfonyl)propan-2-yl)-2-(trifluoromethyl)benzamide]
mortality at 50 µg/cm2 [1]: 50 to 100% | mortality at 50 µg/cm2 [2]: 50 to 100% | mortality at 200 ppm [3]: 0 to 80%
